Assay results taken from US8580843B2, “Use of diindolylmethane (DIM) compounds and derivatives as neuroprotective agents” (Colorado State University Research Foundation, priority 2008, dated 2013).

Columns and labels:
Type in all cases: cell-based, mouse
[1] = tested on: primary striatal neurons co-cultured with activated astrocytes; test: Astrocyte-neuron co-culture: apoptosis of primary striatal neurons (caspase activity, Annexin V binding); details: for Apoptosis in co-cultured striatal neurons (caspase activity and Annexin V-binding): astrocytes co-treated with 10 μM for 8 hours, six hours of co-culture, FIG. 6 C-D
Procedure: Astrocyte Neuron Co-Culture. Cells were isolated as described above and astrocytes grown to confluence on permeable cell culture inserts (BD Biosciences, San Jose, Calif.) prior to treatment. Astrocytes were then treated with MPTP (10 μM), TNF-α (10 pg/ml) and IFN-γ (1 ng/ml) in the presence or absence of DIM-C-pPhtBu (10 μM), Rosiglitazone (10 μM) AMT (25 nM), or DMSO vehicle control for 8 hours. Media was then removed, and the astrocytes washed three times with sterile PBS to prevent carryover of treatment medium to the neurons, and the inserts were placed directly in each well over cultured neurons. Astrocyte-containing inserts were removed following six hours of co-culture, and neuronal caspase activity and phosphatidylserine translocation were measured by widefield fluorescence microscopy using the general cell permeable fluorescent caspase substrate rhodamine 110, bis-(L-aspartic acid amide) and an Annexin V Alexa Fluor 680 conjugate, respectively. Images were acquired using a Zeiss 20× air PlanApochromat objective and at least 10 microscopic fields were examined per treatment group over three independent experiments.
The efficacy of DIM-C-pPhtBu in preventing astrocyte-dependent neuronal apoptosis was examined in FIG. 6. Astrocytes were grown to confluence in cell culture inserts that are permeable to small molecules but prevent direct cell-cell contact. Following treatment of astrocytes with MPTP and TNF-α/IFN-γ in the presence or absence of DIM-C-pPhtBu (10 μM), rosiglitazone (10 μM), the NOS2 inhibitor AMT (25 nM), or DMSO, astrocytes were washed with PBS and co-incubated directly above primary striatal neurons in neurobasal medium. Indices of neuronal apoptosis were then measured using live-cell fluorescence imaging of caspase activity (FIG. 6A) and Annexin V binding (FIG. 6B). […] The DMSO vehicle control had no suppressive effect.
Differing letters denote statistical significance (p<0.05).

Nos2 mRNA = test: Semi-quantitative real-time RT-PCR of Nos2 mRNA in primary astrocytes challenged with MPTP and TNF-α/IFN-γ
Excerpt: Primary Cell Isolation. Cortical astrocytes were isolated from day-1 old C57B1/6 or transgenic mouse pups according to procedures described previously (Aschner and Kimelberg, 1991), and purity confirmed through immunofluorescent staining using antibodies against GFAP and Iba1. Briefly, pups were euthanized by decapitation under isofluorane anesthesia and cortices (astrocytes) or striatum (neurons) rapidly dissected out, and meninges removed. Tissue was subject to digestion with Dispase (1.5 U/ml), and selection of astrocytes was performed by complete media change 24 hrs after plating to remove non-astroglial cell types by serum shock. This method routinely results in cultures that are approximately 99% pure astrocytes, with less than 1% contaminating microglial cells (Supplementary FIG. 1). Astrocyte cultures were maintained at 37° C. and 5% CO2 in minimum essential media supplemented with 10% heat-inactivated fetal bovine serum and a penicillin (0.001 mg/ml), streptomycin (0.002 mg/ml), and neomycin (0.001) antibiotic cocktail. Cell media was changed 24 hrs prior to all treatments. Primary neuronal cultures were seeded onto poly-L-lysine-coated 30 mm glass coverslips at 4×10^5 cells per well, and maintained in neurobasal media supplemented with 2 mM L-glutamine, a B27 supplement, and a penicillin (0.001 mg/ml), streptomycin (0.002 mg/ml), and neomycin (0.001) antibiotic cocktail. Neuronal culture media was changed 24 hours after isolation and every two days afterward, and culture purity confirmed through cell morphology and immunostaining against GAD65/67 (Supplementary FIG. 2). Neurons were used within two weeks of plating. All animal procedures were approved by the Colorado State University Institutional Animal Care and Use Committee, and were conducted in accordance with published NIH guidelines.
RT and Real-Time RT-PCR. […] RNA was isolated using the RNEasy Mini kit (Qiagen, Valencia, Calif.), and purity and concentration were determined using a Nanodrop ND 1000 spectrophotometer (NanoDrop Technologies, Wilmington, Del.). Following purification, 1 ug of RNA was used as template for reverse transcriptase (RT) reactions using the iScript RT kit (BioRad, Hercules Calif.). The resulting cDNA was immediately profiled for Nos2 gene expression (forward: 5′-TCACGCTTGGGTCTTGTT-3′ (SEQ ID NO:1); reverse: 5′-[…] -3′3′ (SEQ ID NO:2)) using β-Actin as a housekeeping gene (forward: 5′-[…]-3′3′ (SEQ ID NO:3); reverse: 5′-CGCTCGTTGCCAATACTG-3′3′ (SEQ ID NO:4)) according to the 2^−ΔΔCT method (Livak and Schmittgen, 2001).

NF-κB = NF-κB EGFP reporter live-cell imaging in cis-NF-κB-EGFP transgenic astrocytes; details: 10 μM, FIG. 4B
Excerpt: NF-κB reporter assays in cis-NF-κB^EGFP transgenic astrocytes and expression of mutant IκBα. To measure activation of NF-κB in live cell, astrocytes were isolated from a unique transgenic mouse expressing a reporter construct consisting of three HIV NF-κB consensus elements inserted 5′ to a minimal c-fos promoter that drives expression of enhanced green fluorescent protein (EGFP) (Magness et al., 2004) (Provided by Dr. Christian Jobin, University of North Carolina at Chapel Hill). NF-κB activity was determined by live-cell imaging using a Zeiss 20× air PlanApochromat objective using SlideBook v4.2 (Intelligent Imaging Innovations, Inc., Denver, Colo.). […] This approach was consistent between all replicates. At least four microscopic fields were examined per treatment group in each of at least three independent experiments, and reported as percent activated cells 8 hours following treatments. […]
A wide array of inflammatory genes, including Nos2, are driven by the NF-κB signaling cascade. […] Real-time imaging of GFP fluorescence was performed in control transgenic astrocytes exposed to saline and in cells exposed to MPTP and TNF-α/IFN-γ in combination with DIM-C-pPhtBu (10 μM), rosiglitazone (10 μM), or DMSO. […]

[2] = astrocytes + MPTP, TNF-α, IFN-γ, FIG. 7(B), concentration not given
[3] = 10 μM, astrocytes + MPTP, TNF-α/IFN-γ, FIG. 2B

COc1ccc(C(c2c[nH]c3ccccc23)c2c[nH]c3ccccc23)cc1 [DIM-C-pPhOCH3, 1,1-bis(3′-indolyl)-1-(p-methoxyphenyl)methane]
Annexin V binding in neurons increased by MPTP and cytokine treatment ([1]; 1 uM on astrocytes for 24 hrs, then 6 hrs with primary striatal neurons, FIG. 10(A)): inhibited | Activation of astrocytes and subsequent neuronal apoptosis (quantitative Annexin V fluorescence) ([1]; 1 uM on astrocytes for 24 hrs, then 6 hrs with primary striatal neurons, FIG. 10(B)): significantly reduced | Suppression of Nos2 mRNA (Nos2 mRNA; [2]): equivalent suppression of Nos2 mRNA | Suppression of Nos2 mRNA, dose response (Nos2 mRNA; concentrations ranging from 0.1 to 3 μM, astrocytes + MPTP, TNF-α, IFN-γ, FIG. 7(A)): dose-responsive suppression

CC(C)(C)c1ccc(C(c2c[nH]c3ccccc23)c2c[nH]c3ccccc23)cc1 [DIM-C-pPhtBu, 1,1-bis(3′-indolyl)-1-(p-t-butylphenyl)methane]
Apoptosis in co-cultured striatal neurons (caspase activity and Annexin V-binding) [1]: prevented | Suppression of Nos2 mRNA (Nos2 mRNA; [3]): equivalent suppression of Nos2 to levels observed in saline-treated control astrocytes | Lowest dose that suppressed Nos2 induction to levels statistically indistinguishable from saline-treated control astrocytes (Nos2 mRNA; primary astrocytes, MPTP + TNF-α/IFN-γ): 10 µM | Suppression of MPTP and TNF-α/IFN-γ induced Nos2 mRNA expression, dose response (Nos2 mRNA; primary astrocytes, concentrations ranging from 1 to 100 μM, FIG. 2A): dose-dependently suppressed | Suppression of MPTP+TNF-α/IFN-γ induced increase in total cellular GFP fluorescence (NF-κB activity) (NF-κB): completely suppressed

CN(CCOc1ccc(CC2SC(=O)NC2=O)cc1)c1ccccn1 (stereo not shown) [rosiglitazone, 5-((4-(2-(methyl-2-pyridinylamino)ethoxy)phenyl)methyl)-2,4-thiazolidinedione, reference compound]
Apoptosis in co-cultured striatal neurons (caspase activity and Annexin V-binding) [1]: prevented | Suppression of Nos2 mRNA (Nos2 mRNA; [3]): equivalent suppression of Nos2 to levels observed in saline-treated control astrocytes | Suppression of Nos2 mRNA (Nos2 mRNA; [2]): equivalent suppression of Nos2 mRNA | Suppression of MPTP+TNF-α/IFN-γ induced increase in total cellular GFP fluorescence (NF-κB activity) (NF-κB): completely suppressed
